Measurements from patent publication US11021753B2, “Mutant genes related to drug resistance and relapse of acute lymphoblastic leukaemia and a use thereof” (SHANGHAI CHILDREN'S MEDICAL CENTER, SHANGHAI JIAO TONG …, priority 2015, dated 2021).
Where two headings read alike, the source gives them in different places.

Columns and labels:
[1] = system: Reh cells expressing different PRPS1 mutant genes; experiment: Drug susceptibility test of 6-MP / 6-TG (cell survival, CellTiter-Glo); assay type: cell-based, human; settings: Reh cells expressing PRPS1 mutant genes compared with control group expressing empty load; 72 hours
Protocol: Reh cells are a strain of human acute B lymphoblastic leukemia. The susceptibility of the PRPS1 mutant to the chemotherapeutic drug 6-MP was determined by the survival rate of Reh cells expressing different PRPS1 mutant genes which were treated by chemotherapeutic drug 6-MP, wherein the process comprises steps of
(i) Cell inoculation: Reh cells expressing the PRPS1 wild-type and all kinds of PRPS1 mutants were counted and seeded into 96-well plates with inoculated 10^4 cells per well. Five parallel wells were designed.
Drugs were added into 96-well plates with grown cells and incubated at 37° C. for 72 hours.
The susceptibility of the PRPS1 mutant to the chemotherapeutic drug 6-TG was determined by the survival rate of Reh cells expressing different PRPS1 mutant genes which were treated by chemotherapeutic drug 6-TG, in which the process comprises steps of
(i) Cell inoculation: Reh cells expressing the PRPS1 wild-type and all kinds of PRPS1 mutants were counted and seeded into 96-well plates with inoculated 10^4 cells per well. Five parallel wells were set up.
Drug were added into 96-well plates with grown cells and incubated at 37° C. for 72 hours.

[2] = system: Reh cells expressing PRPS1 mutant genes; experiment: Identification of cells apoptosis (Annexin V / 7-AAD flow cytometry); assay type: cell-based, human; settings: 10 μg/ml 6-MP or 6-TG, 72 hours; cells expressing PRPS1 mutant genes compared with control group expressing empty load
Protocol: (i) Cell inoculation: Reh cells expressing the PRPS1 wild-type and various PRPS1 mutants were counted and seeded into 12-well plates with inoculated 3×10^5 cells per well. Duplicated wells were set up.
(ii) Cell treatment: the drug 6-MP or 6-TG with concentration of 10 μg/ml was added to a 12-well plate with grown cells and incubated at 37° C. for 72 hours.
(iii) Cell staining: After 72 hours, the cells were collected by centrifugation, washed with PBS buffer, added in […] and 7-AAD dye labeled with PE from BD, and incubated for 15 minutes at room temperature. The cells were centrifuged to discard the supernatant and washed twice with PBS. (iv) Identification by Flow Cytometer: proportion of cell apoptosis was determined using Flow Cytometer from Canto II BD.

[3] = system: Reh cells expressing PRPS1 mutants; experiment: Identification of intracellular metabolites of 6-MP by LC-MS; assay type: cell-based, human; settings: 10 μM 6-MP, 4 hours; mutants in experimental groups compared with control group
Protocol: 6-MP is a prodrug and needs to be undergone metabolic reactions in vivo to form TIMP and TGMP before it works, as shown in FIG. 9C. The identification procedure is as follows:
(i) Cell inoculation: Reh cells expressing the PRPS1 wild-type and various PRPS1 mutants were counted and seeded into 6 cm culture dish with inoculated 3×10^6 cells in each plate.
(ii) Cell treatment: 10 μM chemotherapy drug 6-MP was added into each 6 cm culture dish and treated for 4 hours;
(iii) Cell collection: The cells were transferred to a centrifuge tube, centrifuged at 3,000 g for 5 minutes to remove the supernatant, and lysed at 3×10^6 cells per 200 μl 80% methanol;
(iv) The amounts of metabolites from chemotherapeutic drugs 6-MP, TIMP, TGMP, r-MP, r-TG and r-MMP were measured by LC-MS (ABI 5500 Qtrap coupled with Waters Acquity UPLC), and standard curve for quantification was made using TIMP (Jean Bioscience, […], r-TG (Sigma, cat #858412), r-MMP (Sigma, cat #M4002) respectively.

[4] = system: PRPS1 mutants S103T, 5103N, N144S, T303S, K176N, D183E, A190T, A190V, L191F; experiment: Inhibition of GDP/ADP on PRPS1 protein activity in vitro (Kinase-Glo); assay type: biochemical, human; settings: relapse-specific PRPS1 mutants compared with PRPS1 wild-type
Protocol: (§1) ATP (Item No. A7699), ADP (Item No. A2754), GDP (Item No. G7172) and ribose-5-phosphate (Item No. R7750) were purchased from Sigma. The reaction system comprised 50 mM Tris pH 7.5, 2 mM phosphate, 1 mM DTT, 10 mM MgCl2, 0.5 mM ribose-5-phosphate, 0.5 mM ATP and PRPS1 protein.
(§2) (ii) Inhibition of GDP/ADP on PRPS1 protein activity: 3 times gradient dilution of the GDP/ADP with an initial concentration of 5 mM And 15 μL of PRPS1 in vitro enzyme reaction system was prepared, added into 384-well plate, and reacted at 37° C. for 30 minutes. Then 10 μL of Kinase-Glo reagent (Item No. V3722) from Promega was added reacted at 37° C. for 15 minutes to terminate the reaction. The chemiluminescence values can be read in a microplate reader, and the inhibition of GDP/ADP on PRPS1 protein activity was calculated by Graphpad 5.0.

[5] = system: PRPS1 loss-of-function mutants A87T and M115T; experiment: as above; assay type: biochemical, human; settings: known loss-of-function mutants A87T and M115T compared with wild-type
Protocol: as §1, §2

[6] = system: Reh cells expressing PRPS1 mutant genes; experiment: Cell-level feedback regulation of PRPS1 activity by GDP/ADP (13C5-PRPP by LC-MS); assay type: cell-based, human; settings: each PRPS1 mutant gene in experimental group; 2 mM ADP or 0.5 mM GDP, 4 hours
Protocol: (§3) In the present invention, the intracellular activity of PRPS1 was detected by means of isotope labeling in combination with the technologies of cell biology and metabolomics, and based on this, the effect of nucleotide GDP/ADP on PRPS1 activity was evaluated. The preferred embodiment is as follows:
(§4) (i) Cell culture: Reh cells expressing the PRPS1 wild-type and various PRPS1 mutants were counted and seeded into 6 cm culture dish, and 3×10^6 cells were inoculated in each well.
(§5) (ii) Cell treatment: 2 mM ADP or 0.5 mM GDP was added to the culture dish and cells were treated for 4 hours, after that, the cells were resuspended using glucose-free medium (Gibco, cat #11879-020), and 10 mM glucose labeled with ^13C6 was added into each 6 cm culture dish (Cambridge isotope laboratories, cat #CLM-1396-1) and labeled for 5 minutes. (iii) Cell collection: The cells were transferred to a centrifuge tube, centrifuged at 3,000 g for 5 minutes, the supernatant was removed, and the cells were lysed using 3×10^6 cells/200 μl 80% methanol. (iv) The level of ^13C5-PRPP was detected by LC-MS (ABI 5500 Qtrap coupled with Waters Acquity UPLC), and standard curve quantification was made using PRPP (sigma, cat #P8296). The activity of PRPS1 was determined according to the level of PRPP.

[7] = system: Reh cells expressing the PRPS1 wild-type; experiment: as above; assay type: cell-based, human; settings: wild-type experimental group; 2 mM ADP or 0.5 mM GDP, 4 hours
Protocol: as §3, §4, §5

HGPRT = HGPRT (Homo sapiens, UniProt P00492); settings: for TIMP generation (6-MP conversion by HGPRT): 100 μM 6-MP as reaction substrate, increased concentration of hypoxanthine; for affinity to HGPRT (Km): compared with that of 6-MP and HGPRT
Protocol: Chemotherapeutic drug 6-MP is an analog of hypoxanthine, and both 6-MP and hypoxanthine are substrates of HGPRT. The present invention established an in vitro enzymatic reaction to determine the Km value of 6-MP and hypoxanthine reacting with HGPRT, respectively, which reflects the affinity of HGPRT to hypoxanthine and 6-MP. The preferred embodiment is as follows:
The specific reaction system is as follows:
Hypoxanthine and 6-MP were diluted in a concentration gradient, reacted at 37° C. for 1 hour, and 80% methanol was added to terminate the reaction. The contents of IMP and TIMP were detected by LC-MS. The reaction curves were plotted and the Km values of hypoxanthine and 6-MP were calculated by Graphpad 5.0 software.

Reh-PRPS1-S103T cells [8] = experiment: Intracellular concentration of hypoxanthine in cells treated with Lometrexol (LC-MS); assay type: cell-based, human; settings: Reh-PRPS1-S103T treated with Lometrexol vs control
Protocol: (§6) (iii) Cell collection: cells were pipetted out from the well and centrifuged at 1500 rpm to remove the supernatant. The cells were washed with PBS once, and centrifuged again (500 g). Removed the supernatant.
(§7) (iv) Cell lysis: the cells were lysed using 200 μl 80% methanol per 3×10^6 cells.
(§8) (v) The lysed cells were centrifuged by 14,000 g at 4° C. for 10 minutes, and then the supernatant was transferred to a 1.5 ml EP tube.
(§9) (vi) The contents of hypoxanthine, AICAR and Inosine were detected by LC-MS technology (ABI 5500 Qtrap coupled with Waters Acquity UPLC), and standard curves for absolute quantification were made using ^13C5, ^15N4-hypoxanthine (Cambridge isotope laboratories, cat #489522), AICAR (sigma, cat #A9978) and Inosine (Sigma, cat #I4125), respectively.
(§10) (vi) Determining the intracellular concentration of hypoxanthine: the same as Embodiment 14.

Reh-PRPS1-A190T cells [9] = experiment: as above; assay type: cell-based, human; settings: Reh-PRPS1-A190T treated with Lometrexol vs control
Protocol: as §6, §7, §8, §9, §10

Reh-PRPS1-S103T cells [10] = experiment: Concentration of 6-MP metabolites in cells treated with Lometrexol (LC-MS); assay type: cell-based, human; settings: Reh-PRPS1-S103T treated with Lometrexol vs control
Description: (§11) (v) Determining the concentration of 6-MP metabolites: the same as Embodiment 13.

Reh-PRPS1-A190T cells [11] = experiment: as above; assay type: cell-based, human; settings: Reh-PRPS1-A190T treated with Lometrexol vs control
Description: as §11

Chain of HGPRT (P00492 whole entry): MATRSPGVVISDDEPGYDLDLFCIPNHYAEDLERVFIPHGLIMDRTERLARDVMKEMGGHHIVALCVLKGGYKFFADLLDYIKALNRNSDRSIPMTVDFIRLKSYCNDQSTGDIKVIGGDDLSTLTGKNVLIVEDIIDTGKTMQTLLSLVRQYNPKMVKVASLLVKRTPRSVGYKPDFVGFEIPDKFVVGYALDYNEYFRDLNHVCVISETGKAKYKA

| inhibition of GDP/ADP on PRPS1 protein activity [4] | inhibition of GDP/ADP on PRPS1 protein activity [5] | Compound | IC50 values of drug [1] | apoptotic ratio of cells [2] | concentration of PRPP product after adding the nucleotide [6] | concentration of PRPP after adding the nucleotide [7] | further results |
| --- | --- | --- | --- | --- | --- | --- | --- |
| – | – | Sc1ncnc2nc[nH]c12 [6-MP, 6-mercaptopurine] | significantly increased | significantly down-regulated | – | – | contents of 6-MP metabolites TIMP, TGMP and r-MP, r-TG and r-MMP in cells [3]: significantly lower |
| – | – | Nc1nc2nc[nH]c2c(=S)[nH]1 [6-TG, 6-thioguanine] | significantly increased | significantly down-regulated | – | – | – |
| significantly lower | no significant difference | Nc1ncnc2c1ncn2[C@@H]1O[C@H](COP(=O)(O)OP(=O)(O)O)[C@@H](O)[C@H]1O [ADP] | – | – | not affected | decreased | – |
| significantly lower | no significant difference | Nc1nc2c(ncn2[C@@H]2O[C@H](COP(=O)(O)OP(=O)(O)O)[C@@H](O)[C@H]2O)c(=O)[nH]1 [GDP] | – | – | not affected | decreased | – |
| – | – | O=c1[nH]cnc2nc[nH]c12 [hypoxanthine] | – | – | – | – | TIMP generation (6-MP conversion by HGPRT) (HGPRT): significantly inhibited; TIMP generation (6-MP conversion by HGPRT) (HGPRT; listed as HX): can suppress; affinity to HGPRT (Km) (HGPRT): significantly higher; affinity to HGPRT (Km) (HGPRT; listed as HX): preferred to 6-MP |
| – | – | Lometrexol | – | – | – | – | concentration of hypoxanthine (Reh-PRPS1-S103T cells [8]): significantly decreased; concentration of hypoxanthine (Reh-PRPS1-A190T cells [9]): significantly decreased; intracellular levels of 6-MP metabolites TIMP and TGMP (Reh-PRPS1-S103T cells [10]): significantly increased; intracellular levels of 6-MP metabolites TIMP and TGMP (Reh-PRPS1-A190T cells [11]): significantly increased |
